Measured values from patent publication US20090252674A1, “Tripodal Ligands with the Coordinating Motifs K2 -BH2 or K3 -BH3 Relevant for Biomedical Applications of Organometallic Complexes” (Mallinckrodt Inc., priority 2005, published 2009).

Test: HPLC analysis of the 6a preparation at different intervals of time (stability under physiologic conditions)
Assay type: physicochemical
Conditions: PBS, pH 7.4
Method: In a nitrogen-purged glass vial, 100 μL of a 2.5×10^−2 M aqueous solution of ligand 1 were added to 400 μL (7.5 mCi) of the organometallic precursor fac−[^99mTc(OH2)3(CO)3]^+, and the mixture was incubated at room temperature for 30 min. After this time, complex 6a has been obtained in 90% yield, as checked by gradient HPLC analysis (from 100% aqueous 0.1% CF3COOH solution to 100% CH3CN) using a Nucleosil column (10:m, 250 mm×4 mm). The chemical identity of 6a was confirmed by comparing its HPLC chromatogram with the HPLC profile of the analogue Re complex (6) (Retention time: Re, 25.78 min; ^99mTc, 26.28 min). HPLC analysis of the preparation of 6a, at different intervals of time, has shown that 6a is stable under physiologic conditions (PBS, pH 7.4), at least for a period of 24 h.

stable under physiologic conditions, period: ≥ 24 h
Substance: [^99mTc (κ^3-H3B(Tim^Me))(CO)3] [complex 6a]
